For data set [1] the following is noted: microsomes.
The nature of data set [2]: in vitro. To be noted: rat, microsomes, pH 7.4.
Data set [3] in a line: in vitro. Particulars: mouse, microsomes, pH 7.4.
Another data set deals with hERG (Homo sapiens, UniProt Q12809). The data set can be described thus: in vitro. To be noted: pH 7.4.
The subject of another data set is obese Zucker rats. The experiment in a line: Chronic feeding study. In kind it is in vivo. Particulars: 1, 3, 10 mg/kg/day, dose-dependent, FIGS. 9A-9D. Here is the method: Male, obese Zucker rats (400-500 g) served as subjects for these studies. Rats were housed individually and had access to food and water ad libitum. Rats were allowed to acclimate to the vivarium for a period of 3 days, during which body weight and consumption of food and water was monitored. […] Daily food and water intakes were also monitored. Food and water bottles were weighed at the time body weights were recorded (i.e., 1350 hr). Vehicle or compound was administered daily for a period of up to 15 days.

The test system of the next data set is C57 BK/6 mice. The data set can be described thus: Novel object recognition study. To be noted: test 1 or 2 hours after dosing, CP 55,940 0.3 mg/kg ip, SR141716A 1 mg/kg ip, Compound II 3 mg/kg ip, FIGS. 10, 11. The data set is classed as in vivo. On the procedure:
Subjects: Subjects were male, C57 BK/6 mice purchased from Harlan Laboratories, weighing 15-20 g upon arrival. Animals were housed 8 per cage with food and water available ad libidum. Animals were housed on a 12 hr light cycle (lights on 6 am) for 4-7 days prior to behavioral testing.
Equipment: Novel object recognition (NOR) was conducted in a novel environment consisting of a white plastic tub measuring 45.7×33.7×19 cm. Prior to each trial the bottom of the tub was covered with a piece of plastic lined bench top paper. There were two sets of identical objects chosen so that when given a opportunity to explore, mice would evenly divide exploration time between the objects. “A” objects were yellow, ceramic, 12-sided ramekins measuring 4 cm high×7 cm diameter. “B” objects were 8×8×4 cm stainless steel, 4-sided ramekins.
Procedure: At the beginning of each test day, animals were placed in groups of 6 into clean cages. Testing was conducted in three phases: acclimation, sample and test. […] Each mouse was allowed to explore the chamber and the objects for 3 min., and the time spent exploring at each position was recorded. Directly sniffing or touching the object was recorded as exploration. […] The test sessions were recorded on video and scored by an observer blind to each subject's treatment condition. Any time spent directly sniffing or touching an object was counted as exploration. […]

For data set [4], the system named is rats with unilateral 6-OH dopamine lesions. The experiment in a line: Rotation study (unilateral 6-hydroxy-dopamine lesion). The data set is classed as in vivo. Particulars: 6-OH dopamine lesioned rats; apomorphine 0.05, 0.16, 0.5 mg/kg ip; Compound II 3 mg/kg; FIGS. 14-16.
For another data set, the target named is CB1 (mutant) (Homo sapiens, UniProt P21554). The data set can be described thus: R-SAT functional receptor assay, CB1 (mutant, truncated after amino acid 417). The data set is classed as cell-based. Particulars: Table 1, CB1 (mutant); for IC50: inhibition of constitutive receptor response, read-out: pIC50 (converted); for % Inhibition: relative to the ligand SR141716 (100%).

Another data set concerns the target CB1 (wild-type) (Homo sapiens, UniProt P21554). The experiment in a line: R-SAT functional receptor assay, CB1 (wild-type). In kind it is cell-based. Particulars: for pIC50: Table 1, inhibition of constitutive receptor response; for Emax: Table 1, relative to the ligand SR141716 (100%), read-out: % Inhibition.
The next data set has as its target native CB1 receptors (Rattus norvegicus, UniProt P20272). The data set can be described thus: CB1 receptor rat binding assay ([3H]SR141716A, rat brain membranes). Particulars: rat brain membranes; 3 nM [3H]SR141716A; read-out: Rat Brain pKi (converted).
The subject of data set [5] is NSA mice. The experiment in a line: Hypothermia study (block of CP 55,940-induced hypothermia). In kind it is in vivo. To be noted: pretreatment 30 min prior to CP55,940, dose-dependent, FIG. 6. Here is the method: . […] Core body temperatures were then obtained at various time points following CP 55,940 administration. Core body temperature (to the nearest 0.1° C.) was obtained by rectal probe.

In data set [6] the test system is fasted Sprague-Dawley rats. The experiment in a line: Acute feeding study. The data set is classed as in vivo. Particulars: 1, 3, 10 mg/kg, dose-dependent, FIGS. 2-4. On the procedure:
Male, Sprague-Dawley rats (90-120 g) served as subjects for these studies. Rats were fasted for a period of 16 hrs (water was always available). After the fasting period, test compounds were administered either intraperitoneally (ip) or orally (po). Immediately following compound administration, the rats were returned to their home cage. Following 30 min after compound administration, the rats were removed from their home cages and placed individually into clean cages with a pre-measured amount of food. Food weights were obtained (to the nearest 0.1 g) at various time points. Food consumption was monitored for a period of up to 2 hrs (i.e., 2.5 hr after test compound administration).

The test system of data set [7] is NSA mice. The data set can be described thus: Tail flick study (block of CP 55,940 antinociception). Particulars: test compound ip 30 min prior to CP55,940, FIGS. 5A, 5B.

pIC50: −log10 of the molar value.

CB1 (mutant), sequence (P21554 1-417, change not shown): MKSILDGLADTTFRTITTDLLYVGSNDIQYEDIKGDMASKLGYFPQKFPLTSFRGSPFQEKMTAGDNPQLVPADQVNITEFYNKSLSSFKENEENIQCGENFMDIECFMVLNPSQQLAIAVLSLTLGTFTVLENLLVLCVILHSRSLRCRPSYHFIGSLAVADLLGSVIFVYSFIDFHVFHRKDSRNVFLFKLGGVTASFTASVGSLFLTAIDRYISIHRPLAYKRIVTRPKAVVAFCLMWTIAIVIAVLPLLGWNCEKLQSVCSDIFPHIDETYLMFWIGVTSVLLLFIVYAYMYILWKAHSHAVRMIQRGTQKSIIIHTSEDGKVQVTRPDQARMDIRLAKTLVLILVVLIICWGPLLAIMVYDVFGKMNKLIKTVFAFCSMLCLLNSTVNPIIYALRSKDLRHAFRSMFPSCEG
hERG, sequence (Q12809 whole entry): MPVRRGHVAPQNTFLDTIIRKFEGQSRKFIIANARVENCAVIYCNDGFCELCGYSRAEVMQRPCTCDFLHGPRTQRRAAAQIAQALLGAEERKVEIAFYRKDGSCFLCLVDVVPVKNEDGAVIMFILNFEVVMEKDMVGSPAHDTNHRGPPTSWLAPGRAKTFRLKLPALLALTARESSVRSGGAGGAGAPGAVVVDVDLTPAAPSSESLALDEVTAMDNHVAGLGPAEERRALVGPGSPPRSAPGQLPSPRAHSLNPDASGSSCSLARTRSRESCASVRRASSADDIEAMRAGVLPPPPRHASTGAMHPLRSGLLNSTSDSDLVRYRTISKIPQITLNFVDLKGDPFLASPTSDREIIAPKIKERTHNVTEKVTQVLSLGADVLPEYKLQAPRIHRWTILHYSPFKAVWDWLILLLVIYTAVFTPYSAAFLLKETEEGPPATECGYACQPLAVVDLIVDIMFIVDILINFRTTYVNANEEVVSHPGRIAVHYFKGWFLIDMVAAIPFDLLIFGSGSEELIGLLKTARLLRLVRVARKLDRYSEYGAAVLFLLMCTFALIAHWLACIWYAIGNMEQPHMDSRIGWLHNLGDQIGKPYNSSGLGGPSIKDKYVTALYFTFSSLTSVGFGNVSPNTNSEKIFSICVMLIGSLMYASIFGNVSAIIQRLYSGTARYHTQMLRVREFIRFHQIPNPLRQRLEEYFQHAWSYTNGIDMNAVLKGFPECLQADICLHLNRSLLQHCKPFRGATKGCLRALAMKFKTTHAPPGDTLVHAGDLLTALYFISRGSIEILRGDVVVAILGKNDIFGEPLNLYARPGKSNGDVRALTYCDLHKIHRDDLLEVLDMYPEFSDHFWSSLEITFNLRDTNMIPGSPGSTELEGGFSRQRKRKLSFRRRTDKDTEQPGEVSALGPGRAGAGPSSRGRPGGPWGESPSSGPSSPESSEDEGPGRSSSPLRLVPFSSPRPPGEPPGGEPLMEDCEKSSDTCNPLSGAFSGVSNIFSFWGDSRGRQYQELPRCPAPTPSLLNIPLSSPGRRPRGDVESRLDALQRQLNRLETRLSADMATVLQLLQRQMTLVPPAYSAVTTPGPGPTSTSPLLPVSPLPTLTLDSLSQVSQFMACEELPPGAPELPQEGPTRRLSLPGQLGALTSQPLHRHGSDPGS
CB1 (wild-type), sequence (P21554 whole entry): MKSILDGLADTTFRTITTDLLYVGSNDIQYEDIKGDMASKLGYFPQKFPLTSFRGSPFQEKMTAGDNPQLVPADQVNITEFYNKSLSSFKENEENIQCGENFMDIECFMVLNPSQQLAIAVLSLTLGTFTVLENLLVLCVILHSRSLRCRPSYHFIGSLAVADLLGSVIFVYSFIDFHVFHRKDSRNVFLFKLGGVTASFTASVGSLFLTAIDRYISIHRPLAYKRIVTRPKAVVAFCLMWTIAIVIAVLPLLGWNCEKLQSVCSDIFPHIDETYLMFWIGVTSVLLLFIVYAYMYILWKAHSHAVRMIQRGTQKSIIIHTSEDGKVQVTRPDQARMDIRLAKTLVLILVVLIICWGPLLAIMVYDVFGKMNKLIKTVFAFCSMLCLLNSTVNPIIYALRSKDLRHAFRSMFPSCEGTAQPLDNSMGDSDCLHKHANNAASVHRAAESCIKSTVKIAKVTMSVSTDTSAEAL
native CB1 receptors, sequence (P20272 whole entry): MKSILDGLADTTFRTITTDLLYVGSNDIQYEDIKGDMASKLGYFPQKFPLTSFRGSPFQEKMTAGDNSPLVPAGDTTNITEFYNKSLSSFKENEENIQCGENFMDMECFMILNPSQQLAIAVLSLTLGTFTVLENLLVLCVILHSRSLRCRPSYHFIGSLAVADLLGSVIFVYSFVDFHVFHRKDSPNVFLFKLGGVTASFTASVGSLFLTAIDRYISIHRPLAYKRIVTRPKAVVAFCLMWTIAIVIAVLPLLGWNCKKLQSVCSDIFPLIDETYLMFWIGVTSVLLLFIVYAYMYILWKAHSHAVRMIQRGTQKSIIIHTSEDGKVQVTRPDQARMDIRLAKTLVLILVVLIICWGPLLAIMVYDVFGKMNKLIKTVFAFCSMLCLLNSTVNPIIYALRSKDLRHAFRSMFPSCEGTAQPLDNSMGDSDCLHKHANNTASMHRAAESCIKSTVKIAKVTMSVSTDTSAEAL

Take `CCCCNC(=O)c1ccc2c(c1)N=C(c1ccc(Cl)cc1)c1ccc(Cl)cc1S2` [drawing 1732]: the “Clearance Human” value in data set [1] is given as 0. The values for the microsomal CLint at 1 μM in the data set “in vitro [2]” and in the data set “in vitro [3]” were 24 µL/min/mg and 29 µL/min/mg, respectively.
On hERG, `O=C(NN1CCCCC1)c1ccc2c(c1)N=C(c1ccc(Cl)s1)c1ccccc1S2` [drawing 1829] yielded an inhibition at 1 µM of 66%.
Still for that read-out and setting: next, `CC(C)CNC(=O)c1ccc2c(c1)N=C(c1ccc(Cl)cc1)c1ccccc1S2` [drawing 1818]: 69%.
As for `CCCCNC(=O)c1ccc2c(c1)N=C(c1ccc(Cl)cc1)c1ccccc1S2` [Compound II, N-(butyl)-11-(4-chlorophenyl)-dibenzo[b,f,][1,4]thiazepine-8-carboxamide], the “food and water intake” value in the data set on obese Zucker rats was “attenuated the food and water intake of the rats”. Also, the “preference for the novel object (exploration ratio, discrimination index)” value in the data set with C57 BK/6 mice is listed as “showed a preference for the novel object”. The contralateral rotations result in data set [4] is recorded as “augments dopaminergic functions”.
In the case of `O=C(NN1CCCCC1)c1ccc2c(c1)N=C(c1ccc(F)cc1)c1ccccc1S2` [drawing 1815], on hERG, 1 µM produced 91% inhibition.
`CC(C)CNC(=O)c1ccc2c(c1)N=C(c1ccc(Cl)s1)c1ccccc1S2` [Example 11, 11-(5-Chlorothiophen-2-yl)-dibenzo[b,f][1,4]thiazepine-8-carboxylic acid isobutylamide]: at CB1 (mutant), the IC50 was 0.126 µM and the “% Inhibition” value amounted to 95%. In addition, at CB1 (wild-type), the negative-log IC50 (pIC50) is 7.80 and the Emax turned out to be 84%. For the same compound, the Ki on native CB1 receptors was 0.01 µM.
Consider `O=C(NN1CCCCC1)c1ccc2c(c1)N=C(C1CCCCC1)c1ccccc1S2` [Compound I, 11-Cyclohexyl-dibenzo[b,f][1,4]thiazepine-8-carboxylic acid piperidin-1-ylamide], for which, in the data set with NSA mice [5], the “effect on CP 55,940-induced hypothermia (core body temperature)” value was “attenuates CP 55,940-induced hypothermia”. Moreover, in data set [6], the cumulative food intake entry is reported as “suppresses the cumulative food intake in fasted rats”. Moreover, the “effect on antinociceptive actions of CP55,940 (tail flick latency)” value in the data set with NSA mice [7] is recorded as “attenuates the antinociceptive actions of CP55,940”.
On hERG, `O=C(NC1CCC(F)(F)CC1)c1ccc2c(c1)N=C(c1cccc(Cl)c1)c1ccccc1S2` [drawing 1838] displayed an inhibition at 1 µM of 62%.
For `CCCCCCC(C)(C)c1ccc([C@@H]2C[C@H](O)CC[C@H]2CCCO)c(O)c1` [CP 55,940, reference compound], the “preference for the novel object (exploration ratio, discrimination index)” value in the data set with C57 BK/6 mice is listed as “showed a preference for the novel object after 1 hour of being dosed with the test compound but then returned back to baseline exploration rates after 2 hours”.
As for `O=C(NN1CCCCCC1)c1ccc2c(c1)N=C(c1cccc(F)c1)c1ccccc1S2` [drawing 1827], the inhibition at 1 µM against hERG turned out to be 88%.
For the compound `Cc1ccc(N2CCN(C(=O)c3ccc4c(c3)N=C(C3CCCCC3)c3ccccc3S4)CC2)c(C)c1` [Example 18, (11-Cyclohexyl-dibenzo[b,f][1,4]thiazepin-8-yl)-[4-(2,4-dimethyl-phenyl)-piperazin-1-yl]methanone], at CB1 (mutant), the IC50 was 0.2 µM and the “% Inhibition” value is given as 99%. Besides, at CB1 (wild-type), the negative logarithm of the IC50 (pIC50) is 7.40 and the Emax came to 99%.
In the case of `CN1CCc2cccc3c2[C@H]1Cc1ccc(O)c(O)c1-3` [apomorphine, reference compound], the contralateral rotations entry in data set [4] is “dose-dependently elicits contralateral rotations”.

The values are drawn from patent US20080090805A1, “CB-1 MODULATING COMPOUNDS AND THEIR USE” (ACADIA PHARMACEUTICALS INC., priority 2005, published 2008).
